Laboratory results: publication PMC6222847, “Application of HPCCC Combined with Polymeric Resins and HPLC for the Separation of Cyclic Lipopeptides Muscotoxins A–C and Their Antimicrobial Activity” (Molecules : A Journal of Synthetic Chemistry and Natural …, 2018)
In brackets after ≈: the same amount, converted by molar mass. *1 amine or outer side, *2 acyl side, *3 side chain or, on linkers, in order; H or OH if unused. Where a SMILES comes first, the peptide text is derived from it. [ ]: non-standard residue; d: D form. X1 = CCCCCC(O)CC(N[*:1])C(O)C(=O)[*:2]; d(aIle) = CC[C@H](C)[C@@H](N)C(=O)O; Dhb = C/C=C(\N)C(=O)O

What was measured:
Assay in all cases: microbe, parasite or virus in culture
Type in all cases: cell-based
Alternaria alternata = test system: Alternaria alternata
Protocol: (§1) Furthermore, compound 1 was evaluated for its antimicrobial activity against five bacterial isolates; S. aureus (CCM3824), B. subtilis (CCM1999), S. sanguinis (CCM4047), P. aeruginosa (CCM1959), E. coli (CCM2024), and eight fungal isolates; C. friedrichii (BCC020_2879), A. fumigatus (BCC020_2845), F. oxysporum (BCC020_2866), T. harzianum (BCC020_0606), B. sorokiniana (BCC020_1571), M. cucumerina (BCC020_2872), C. globosum (BCC020_2527), and A. alternata (BCC020_0609) using broth two-fold microdilution method following the standard protocol. Briefly, for broth microdilution method, the compounds were serially diluted at varying concentrations between 300 and 0.0732 µg/mL in Mueller Hinton broth (for bacteria) and Muller Hinton broth with 2% glucose (for fungi) in 96-well plates. Culture broth (0.1 mL) was added to each well containing the compound. Plates were incubated aerobically at 37 °C for 16 h (bacteria) and 30 °C for 48 h (for fungi). Negative controls were prepared separately with respective organisms in the same culture media with methanol (the dissolving solvent). Positive controls were also prepared separately with respective organisms. Erythromycin (32–0.0625 µg/mL) was used as positive control for S. aureus and S. sanguinis, gentamycin (32–0.0625 µg/mL) was used as positive control for Bacillus subtilis, E. coli, and P. aeruginosa, whereas fluconazole (32–0.0625 µg/mL) was used as positive control for all the fungal isolates. After incubation, the well with the least concentration of the compound showing any inhibition in the growth was taken as the MIC value for the respective organisms. MIC95 was determined as the concentration required to inhibit or kill 95% of bacterial isolates spectroscopically at 600 nm. Minimum fungicidal concentration (MFCs) were determined after 48 h incubation by removing 10 µL of the contents from wells showing no visible growth and spreading them on to Sabouraud dextrose agar plates. The plates were then incubated for 72 h and MFCs were determined as the concentrations which killed 95–100% of the inoculum. All the experiments were done in triplicate.

Aspergillus fumigatus = test system: Aspergillus fumigatus
Protocol: as §1

Candida friedrichii = test system: Candida friedrichii
Protocol: as §1

Chaetomium globosum = test system: Chaetomium globosum
Protocol: as §1

Fusarium oxysporum = test system: Fusarium oxysporum
Protocol: as §1

Monographella cucumerina = test system: Monographella cucumerina
Protocol: as §1

Trichoderma harzianum = test system: Trichoderma harzianum
Protocol: as §1

SMILES: C/C=C1\NC(=O)[C@H](CO)NC(=O)[C@@H]([C@@H](C)CC)NC(=O)[C@H](Cc2ccccc2)NC(=O)[C@@H]2CCCN2C(=O)CNC(=O)[C@@H](CCC(N)=O)NC(=O)C(O)C(CC(O)CCCCC)NC(=O)[C@@H]2CCCN2C(=O)[C@@H]([C@@H](C)CC)NC(=O)[C@H](CO)NC1=O (some centres unmarked) [compound 2, muscotoxin A] (cyclo([Dhb]S[d(aIle)]P[X1][dQ]GPF[d(aIle)]S))
- MIC (Alternaria alternata; A. alternata BCC020_0609, Muller Hinton broth with 2% glucose, 300–0.0732 µg/mL (control 32–0.0625), 30 °C 48 h, triplicate, least concentration showing any inhibition): 0.58 µg/mL (≈ 0.479 µM)
- MFC (Alternaria alternata; A. alternata, 10 µL from wells without visible growth after 48 h spread on Sabouraud dextrose agar, 72 h, kills 95–100% of the inoculum): 75 µg/mL (≈ 61.9 µM)
- MIC (Aspergillus fumigatus; A. fumigatus BCC020_2845, Muller Hinton broth with 2% glucose, 300–0.0732 µg/mL (control 32–0.0625), 30 °C 48 h, triplicate, least concentration showing any inhibition): 2.34 µg/mL (≈ 1.93 µM)
- MFC (Aspergillus fumigatus; A. fumigatus, 10 µL from wells without visible growth after 48 h spread on Sabouraud dextrose agar, 72 h, kills 95–100% of the inoculum): 37.5 µg/mL (≈ 31 µM)
- MIC (Candida friedrichii; C. friedrichii BCC020_2879, Muller Hinton broth with 2% glucose, 300–0.0732 µg/mL (control 32–0.0625), 30 °C 48 h, triplicate, least concentration showing any inhibition): 75 µg/mL (≈ 61.9 µM)
- MFC (Candida friedrichii; C. friedrichii, 10 µL from wells without visible growth after 48 h spread on Sabouraud dextrose agar, 72 h, kills 95–100% of the inoculum): <300 µg/mL
- MIC (Chaetomium globosum; C. globosum BCC020_2527, Muller Hinton broth with 2% glucose, 300–0.0732 µg/mL (control 32–0.0625), 30 °C 48 h, triplicate, least concentration showing any inhibition): 18.75 µg/mL (≈ 15.5 µM)
- MFC (Chaetomium globosum; C. globosum, 10 µL from wells without visible growth after 48 h spread on Sabouraud dextrose agar, 72 h, kills 95–100% of the inoculum): <300 µg/mL
- MIC (Fusarium oxysporum; F. oxysporum BCC020_2866, Muller Hinton broth with 2% glucose, 300–0.0732 µg/mL (control 32–0.0625), 30 °C 48 h, triplicate, least concentration showing any inhibition): 75 µg/mL (≈ 61.9 µM)
- MFC (Fusarium oxysporum; F. oxysporum, 10 µL from wells without visible growth after 48 h spread on Sabouraud dextrose agar, 72 h, kills 95–100% of the inoculum): <300 µg/mL
- MIC (Monographella cucumerina; M. cucumerina BCC020_2872, Muller Hinton broth with 2% glucose, 300–0.0732 µg/mL (control 32–0.0625), 30 °C 48 h, triplicate, least concentration showing any inhibition): 2.34 µg/mL (≈ 1.93 µM)
- MFC (Monographella cucumerina; M. cucumerina, 10 µL from wells without visible growth after 48 h spread on Sabouraud dextrose agar, 72 h, kills 95–100% of the inoculum): 75 µg/mL (≈ 61.9 µM)
- MIC (Trichoderma harzianum; T. harzianum BCC020_0606, Muller Hinton broth with 2% glucose, 300–0.0732 µg/mL (control 32–0.0625), 30 °C 48 h, triplicate, least concentration showing any inhibition): 37.5 µg/mL (≈ 31 µM)
- MFC (Trichoderma harzianum; T. harzianum, 10 µL from wells without visible growth after 48 h spread on Sabouraud dextrose agar, 72 h, kills 95–100% of the inoculum): 300 µg/mL (≈ 248 µM)
